From patent US20240229043A1, “Methods and Compositions for Treating, Ameliorating, and/or Preventing Chronic Kidney Disease (CKD) and Complications thereof by Regulating DPEP1, CASP9, ACSS2 and/or FASN” (THE TRUSTEES OF THE UNIVERSITY OF PENNSYLVANIA, priority 2022, published 2024)
Entries after “also recorded” stand apart in the source; their conditions may differ.

Experiments:
ACSS2 [1] = target: ACSS2 (Homo sapiens, UniProt Q9NR19); conditions: cell and animal models; cited from earlier work
Sequence of ACSS2 (Homo sapiens, UniProt Q9NR19) (Q9NR19 whole entry, species assumed): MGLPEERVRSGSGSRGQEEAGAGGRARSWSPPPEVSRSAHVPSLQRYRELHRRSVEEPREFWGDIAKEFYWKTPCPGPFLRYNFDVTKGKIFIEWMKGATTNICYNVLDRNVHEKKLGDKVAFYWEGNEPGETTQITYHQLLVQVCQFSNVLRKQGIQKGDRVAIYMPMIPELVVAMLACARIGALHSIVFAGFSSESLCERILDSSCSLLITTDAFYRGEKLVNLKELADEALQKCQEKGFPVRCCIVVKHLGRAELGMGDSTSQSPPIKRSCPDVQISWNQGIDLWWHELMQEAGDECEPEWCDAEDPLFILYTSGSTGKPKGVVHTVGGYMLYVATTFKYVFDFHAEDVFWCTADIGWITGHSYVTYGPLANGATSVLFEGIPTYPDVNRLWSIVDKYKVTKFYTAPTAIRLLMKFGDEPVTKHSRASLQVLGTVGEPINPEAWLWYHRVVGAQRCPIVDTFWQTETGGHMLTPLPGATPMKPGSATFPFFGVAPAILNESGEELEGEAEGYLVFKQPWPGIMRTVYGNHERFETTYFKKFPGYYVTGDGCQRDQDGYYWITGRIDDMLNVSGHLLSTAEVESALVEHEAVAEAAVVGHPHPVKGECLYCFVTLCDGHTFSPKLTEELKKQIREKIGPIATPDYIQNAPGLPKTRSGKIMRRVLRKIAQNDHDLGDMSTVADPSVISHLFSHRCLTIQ

ACSS2 [2] = target: T1, ACSS2 (Mus musculus, UniProt Q9QXG4); assay: UUO mouse model of kidney fibrosis with ACSS2i; format: in vivo, mice
T1 construct: from tissue; host or cells: living C57BL/6J mice; read-outs in kidney
T1 sequence (Q9QXG4 whole entry): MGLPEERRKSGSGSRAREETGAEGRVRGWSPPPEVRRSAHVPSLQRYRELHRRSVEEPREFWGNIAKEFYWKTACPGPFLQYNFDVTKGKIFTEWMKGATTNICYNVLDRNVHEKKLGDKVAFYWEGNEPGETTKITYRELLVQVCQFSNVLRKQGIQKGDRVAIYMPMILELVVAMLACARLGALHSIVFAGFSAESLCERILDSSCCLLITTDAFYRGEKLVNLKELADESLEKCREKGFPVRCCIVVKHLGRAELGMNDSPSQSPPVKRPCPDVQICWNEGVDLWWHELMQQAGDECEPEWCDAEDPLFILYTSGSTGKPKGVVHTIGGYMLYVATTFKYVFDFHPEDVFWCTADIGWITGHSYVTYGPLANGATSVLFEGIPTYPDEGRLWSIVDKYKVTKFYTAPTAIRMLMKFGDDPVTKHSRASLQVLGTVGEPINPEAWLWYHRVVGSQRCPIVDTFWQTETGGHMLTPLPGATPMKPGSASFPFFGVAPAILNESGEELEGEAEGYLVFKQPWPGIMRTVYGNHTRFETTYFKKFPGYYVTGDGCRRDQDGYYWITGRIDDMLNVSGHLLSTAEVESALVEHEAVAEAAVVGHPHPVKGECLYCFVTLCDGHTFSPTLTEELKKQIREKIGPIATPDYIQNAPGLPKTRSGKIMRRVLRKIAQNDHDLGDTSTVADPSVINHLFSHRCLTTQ
Description: (§1) Animal studies were approved by the Institutional Animal Care and Use Committee (IACUC) of the University of Pennsylvania. Mice were housed in pathogen free conditions with 12 h dark and light cycle in a temperature- and humidity-controlled environment (23±1). The mice were fed ad libitum with water and rodent standard chow diet. 6- to 7-week-old male and female C57BL/6J mice were used in the study. Mice were randomly assigned to experimental groups for all experiments including drug efficacy studies. To induce kidney injury, the present study employed two widely used kidney disease models including unilateral ureteral obstruction (UUO) and folic acid nephropathy (FAN). UUO surgery experiments were conducted on male and female mice. Briefly, UUO was performed by ligating the right kidney ureter, and the left kidney served as a sham operated kidney. Post-surgical procedures were followed according to the IACUC guidelines. For FAN models, 300 mM sodium bicarbonate (NaHCO3) solution was first made to solubilize folic acid (FA) and injected into male mice (FA 250 mg/kg i.p at single dose). Mice were sacrificed 7 days following injection or surgery. For the drug injection studies, mice were first injected one day before the UUO surgery.
(§2) Approximately 20-30 mg of kidney tissue was homogenized in SDS-blue loading buffer (#7722, CST) containing 42 mM DTT. Samples were loaded onto the SDS-PAGE gels and run at 100v for 1 h 40 min at RT in Tris-Glycine-SDS buffer. The proteins were transferred onto a PVDF membrane. Membranes were blocked with 3% non-fat dry milk powder in tris-buffer saline containing Tween-20 (TBST) for 30 min at RT. The blots were then incubated with primary antibody overnight at 4OC. After primary antibody incubation, the blots were washed three times with TBST, IRdye-conjugated secondary antibodies were probed for 1 h at RT. Finally, the blots were washed in TBST for three minutes each, 10 min at RT, and scanned at 600, 700, and 800 excitation wavelengths in Li-COR imager (Odysseyφ XF), Image Studio software. The images were quantified for relative abundance in Image J software.
(§3) The tissues were fixed in formalin, dehydrated by an ethanol gradient (30%, 50%, 75% and 95%) and then submitted to the histology Core in 100% ethanol. Once the tissue was sectioned, H&E and Sirius red staining was performed. Images were acquired in Olympus 5000 microscope with Cell Sense software. Percentage of relative fibrosis was quantified in image J.
(§4) For the inhibitor studies, littermate mice were randomly assigned to receive either FASNall or ACSS2i. A single dose of 1 mg/ml FASNall was given via i.p injection at 10 mg/kg body weight one day prior to the UUO surgery. Mice were sacrificed 3 days after UUO surgery, and their kidneys were harvested. ACSS2i was injected at 20 mg/kg body weight via i.p injection one day prior to UUO surgery, followed by daily injections for 5 days. Mice sacrificed on the 7th day after UUO surgery.

FASN [3] = target: T2, FASN (Mus musculus, UniProt P19096)
T2 sequence (P19096 whole entry): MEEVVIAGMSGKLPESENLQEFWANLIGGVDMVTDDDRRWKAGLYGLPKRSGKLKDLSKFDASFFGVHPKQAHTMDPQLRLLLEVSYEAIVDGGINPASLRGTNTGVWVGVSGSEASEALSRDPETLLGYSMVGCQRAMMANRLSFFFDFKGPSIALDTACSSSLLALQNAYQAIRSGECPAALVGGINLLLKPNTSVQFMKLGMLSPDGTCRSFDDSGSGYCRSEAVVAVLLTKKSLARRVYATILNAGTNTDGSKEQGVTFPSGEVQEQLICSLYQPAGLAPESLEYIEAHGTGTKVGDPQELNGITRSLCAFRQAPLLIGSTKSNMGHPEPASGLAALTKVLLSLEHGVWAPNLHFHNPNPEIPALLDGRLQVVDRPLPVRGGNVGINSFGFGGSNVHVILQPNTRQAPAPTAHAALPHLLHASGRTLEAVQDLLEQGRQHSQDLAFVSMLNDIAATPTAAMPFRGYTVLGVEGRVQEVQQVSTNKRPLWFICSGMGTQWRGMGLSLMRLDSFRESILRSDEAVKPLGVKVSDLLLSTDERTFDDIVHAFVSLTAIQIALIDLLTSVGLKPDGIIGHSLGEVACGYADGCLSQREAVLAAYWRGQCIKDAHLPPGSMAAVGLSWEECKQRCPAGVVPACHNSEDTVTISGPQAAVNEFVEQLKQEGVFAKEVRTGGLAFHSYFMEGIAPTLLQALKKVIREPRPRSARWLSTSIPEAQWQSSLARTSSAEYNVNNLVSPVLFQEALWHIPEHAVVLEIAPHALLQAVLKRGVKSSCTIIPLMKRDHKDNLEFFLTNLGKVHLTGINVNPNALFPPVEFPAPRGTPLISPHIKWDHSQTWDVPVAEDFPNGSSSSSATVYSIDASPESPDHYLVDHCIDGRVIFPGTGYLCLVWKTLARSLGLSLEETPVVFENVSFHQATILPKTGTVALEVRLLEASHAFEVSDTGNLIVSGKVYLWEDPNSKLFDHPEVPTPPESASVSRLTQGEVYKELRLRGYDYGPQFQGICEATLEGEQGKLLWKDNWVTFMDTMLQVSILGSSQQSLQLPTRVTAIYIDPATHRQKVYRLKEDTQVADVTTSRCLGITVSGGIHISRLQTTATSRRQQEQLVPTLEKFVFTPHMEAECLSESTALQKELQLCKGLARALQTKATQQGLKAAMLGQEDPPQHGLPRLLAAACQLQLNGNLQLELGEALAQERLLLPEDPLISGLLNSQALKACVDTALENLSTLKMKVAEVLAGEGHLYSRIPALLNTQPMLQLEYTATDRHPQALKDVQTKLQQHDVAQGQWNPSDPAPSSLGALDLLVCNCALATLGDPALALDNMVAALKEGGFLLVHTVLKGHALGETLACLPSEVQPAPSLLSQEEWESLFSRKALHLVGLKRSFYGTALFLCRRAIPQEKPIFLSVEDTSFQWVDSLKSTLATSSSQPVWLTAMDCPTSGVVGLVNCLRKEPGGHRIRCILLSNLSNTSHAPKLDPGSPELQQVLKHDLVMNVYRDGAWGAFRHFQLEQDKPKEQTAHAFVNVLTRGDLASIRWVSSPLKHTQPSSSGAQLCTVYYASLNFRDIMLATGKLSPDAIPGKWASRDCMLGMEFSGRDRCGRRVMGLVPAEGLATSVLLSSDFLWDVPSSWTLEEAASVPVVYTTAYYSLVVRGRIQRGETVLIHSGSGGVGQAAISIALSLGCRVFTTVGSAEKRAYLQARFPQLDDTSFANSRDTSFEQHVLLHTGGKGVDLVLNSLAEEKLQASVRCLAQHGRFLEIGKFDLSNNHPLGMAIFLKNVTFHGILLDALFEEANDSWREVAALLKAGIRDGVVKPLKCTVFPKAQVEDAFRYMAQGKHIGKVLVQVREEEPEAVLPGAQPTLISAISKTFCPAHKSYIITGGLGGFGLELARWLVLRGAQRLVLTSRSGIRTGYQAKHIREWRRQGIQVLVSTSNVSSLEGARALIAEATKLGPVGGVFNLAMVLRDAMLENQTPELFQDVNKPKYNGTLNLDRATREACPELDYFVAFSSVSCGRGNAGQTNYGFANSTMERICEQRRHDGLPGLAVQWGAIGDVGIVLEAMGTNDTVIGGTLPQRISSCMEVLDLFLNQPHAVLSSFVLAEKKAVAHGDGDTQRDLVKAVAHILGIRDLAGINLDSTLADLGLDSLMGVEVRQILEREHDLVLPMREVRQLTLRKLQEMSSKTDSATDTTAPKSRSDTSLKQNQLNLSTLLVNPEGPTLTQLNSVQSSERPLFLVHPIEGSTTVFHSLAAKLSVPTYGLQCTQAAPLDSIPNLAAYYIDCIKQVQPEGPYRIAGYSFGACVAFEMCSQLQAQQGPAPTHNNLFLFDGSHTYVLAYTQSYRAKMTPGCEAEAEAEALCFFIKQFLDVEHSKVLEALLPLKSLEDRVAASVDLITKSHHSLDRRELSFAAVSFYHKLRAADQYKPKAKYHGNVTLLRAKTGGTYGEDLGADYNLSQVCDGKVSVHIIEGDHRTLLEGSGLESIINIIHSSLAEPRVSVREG

FASN [4] = target: T2, FASN; format: in vivo
Description: as §1, §2, §3, §4

FASN [5] = target: T2, FASN; format: cell-based
Description: The NADPH/NADP+ ratio was calculated according to the manufacturer protocol (#G1009, Promega). Briefly, an equal number of cells were cultured in a 96-well format and starved overnight for TGF-beta 1 treatments. Next, the cells were lysed in 20% DTAB containing Basic solution for 10 min at RT. Samples were processed according to the protocol for measuring NADPH and NADP+ from the same well simultaneously. The absolute and relative NADPH/NADP+ values were calculated according to the manufacturer's formula.
Reduced and oxidized glutathione levels were measured according to the Glutathione Colorimetric Detection Kit (#EIAGSHC, Thermo Scientific) from the same well after completion of all treatments.
(§5) Primary cells were cultured on microscopic cover glass overnight until they reached 70% confluency. Cells were incubated in a 5 μM MitoSox (#M36008, Thermo Scientific) solution for 10 min in incubator and processed for imaging and quantifications. Cells were also incubated in 10 μM JC-1 (#T3168, Thermo Scientific) for 10 min and then proceeded with imaging and quantifications.

mitochondrial ROS = assay: MitoTempo in TGF-beta 1 treated primary tubule cells; format: cell-based, mice
Description: as §5
Cells cultured as above and pretreated with 100 μM MitoTempo (#SML0737, Sigma) for 2 h, followed by TGF-beta 1 treatments while MitoTempo was still present.

primary TECs = assay: Cisplatin-treated primary kidney tubule cells from wild-type and Chmp1a+/- mice; format: cell-based
Description: For primary culture of renal tubule cells, kidneys were collected from 2- to 4-week-old male mice. Cells were isolated by 2 mg/ml collagenase I (Gibco #17018-029) digestion for 30 min at 37° C. with gentle stirring and filtered through a 100-μm mesh. The cell suspension was cultured in RPMI 1640 (Corning #10-040-CM) supplement with 10% FBS (Atlanta Biologicals #S11950), 20 ng/ml EGF (Peprotech #AF-100-15), 1×ITS (Gibco #51500-056), and 1% penicillin-streptomycin (Corning #30-002-CI) at 5% CO2 and 37° C.
Primary cultured renal tubule cells or NRK52E cells were incubated with 1 μM transferrin (Thermo Fisher #T13342) for 4 h, or 5 μM mitoSOX (ThermoFisher #M36008) for 10 min, or 2 μM BODIPY™ 581/591 C11 (Thermo Fisher #D3861) for 0.5 h, or 20 ng/ml dextran conjugated to 488 (Thermo Fisher #D22910) for 2 h, at 5% CO2 and 37° C., respectively. After washing with PBS, cells were imaged directly under the confocal or regular fluorescence microscope.
Mouse primary tubular epithelial cells from wild-type, mutant mice or NRK52E cells were plated in 96-well plate. Transfection of NRK52E cells with siRNA was carried out as described above. […] Cells were harvested and stained with trypan blue (Thermo Fisher #T10282) to visualize dead cells. Cell counts were analyzed in Countess Auto Counter (Invitrogen, C10227). LDH release was quantified using CytoTox 96 Non-Radioactive Cytotoxicity Assay (Promega #G1780). Medium was collected in triplicates, spun down, and incubated in a 96-well plate with the CytoTox reagent for 20-30 min. After adding the stop solution, the absorbance signal was measured at 490 nm in a plate reader. The ratio between dead cell and live cell was calculated through the measurement using MultiTox-Fluor Multiplex Cytotoxicity Assay (Promega #9201). Cells were incubated in assay buffer containing live cell substrate GF-AFC and dead cell substrate bis-AAF-R110 for 30 min at 37° C. The plate fluorescence was measured using a plate reader as following: viability: excitation ˜400 nm; emission ˜505 nm. cytotoxicity: excitation ˜485 nm; emission ˜520 nm.

Compound: COCCNC(=O)Nc1ccc2nc(-c3cccs3)c(-c3cccs3)nc2c1 [ACSS2i]
- obesity-induced multiple myeloma growth (ACSS2 [1]): reduce
- fibrosis and tubule atrophy (H&E, Sirius red quantification) (ACSS2 [2]; UUO): markedly lower
- Gene and protein expression of fibrosis markers (Acta2, Col1a1, Col3a, and Fn1) (ACSS2 [2]; UUO kidney injury): reduced fibrosis; also recorded: protective effect
- gene expression of NLRP3, IL-1B, IL18, caspase1 and Gsdmd (ACSS2 [2]; UUO kidneys): lower
- lipid accumulation (Fasn, Plin2 expression, TG accumulation) (ACSS2 [2]; UUO kidneys): inhibited
- Protein levels of NLRP3, caspase1, cleaved caspase1 (p20), F-GSDMD, and N-GSDMD (ACSS2 [2]; UUO kidneys vs vehicle treated): lower
- kidney disease development (ACSS2 [2]; mice): protect mice from kidney disease development
- collagen fibers staining (Sirius Red) (ACSS2 [2]; vs vehicle alone): reduced
- UUO induced kidney injury (H&E analysis) (ACSS2 [2]; vs vehicle injected mice): prevented

Compound: Cc1sc2ncnc(NC3CCN(Cc4ccccc4)C3)c2c1C (stereo not drawn) [FASNall]
- cell death (cell viability) (FASN [3]): did not increase cell death
- Protein levels of FN1 and α-SMA (FASN [4]; UUO kidneys): suppressed; also recorded: lower
- TGs (TAGs) levels in kidney (FASN [4]; UUO kidneys): prevented; also recorded: lower
- fibrosis markers Acta2, Col1a1, Col3a, and Fn1 gene expression (FASN [4]; UUO kidneys): lower
- gene expression of NLRP3, IL-1B, IL18, caspase1 and Gsdmd (FASN [4]; UUO kidneys): lower
- lipid accumulation (Oil red O staining) (FASN [4]; UUO kidneys): attenuated; also recorded: lower
- tissue scarring (Sirius red staining) (FASN [4]; UUO kidneys vs vehicle): less
- tubule atrophy and fibrosis (histological analysis) (FASN [4]; UUO kidneys vs vehicle): lower
- Protein levels of NLRP3, caspase1, cleaved caspase1 (p20), F-GSDMD, and N-GSDMD (FASN [4]; UUO kidneys vs vehicle treated): lower
- Fasn and Plin2 expression (FASN [4]; UUO kidneys, single dose 10 mg/kg i.p., 10 mg/kg): significantly prevented; also recorded: ameliorated
- kidney injury and fibrosis / kidney disease development (FASN [4]; mice): prevented kidney injury and fibrosis development; also recorded: protect mice from kidney disease development
- less negative mitochondrial membrane potential (monomeric JC-1 accumulation) (FASN [5]; TGF-beta 1 treated WT cells): attenuated this effect
- GSH levels and relative GSH/GSSH ratio (FASN [5]; TGF-beta 1 treated cells): preserved
- NADPH/NADP+ ratio (FASN [5]; TGF-beta 1 treated tubule cells): preserved

Compound: CC1(C)CC(NC(=O)C[P+](c2ccccc2)(c2ccccc2)c2ccccc2)CC(C)(C)N1[O] [Mito-TEMPO]
- inflammasome activation (IL-1B, IL18, and caspase1 increase) (mitochondrial ROS; following TGF-beta 1 treatment, MitoTempo 100 μM): efficiently lowered
- TGF-beta 1 induced expression of fibrosis markers / fibrotic genes (mitochondrial ROS; primary TECs): lowered; also recorded: diminished
- LDH release induced by cisplatin (primary TECs; Chmp1a+/- primary TECs): markedly lowered
- lipid peroxidation (C11 BODIPY 581/591) induced by cisplatin (primary TECs; primary TECs from wild-type or Chmp1a+/- mice): markedly lowered
